Results published in ChEMBL document CHEMBL1909046, “DrugMatrix in vitro pharmacology data”.

Tests used:
[1] = biological target: C-C chemokine receptor type 5 (Homo sapiens, UniProt P51681); format: cell membranes, Membrane; conditions: hek293; note: in other assays of this panel Not Active means under 50% inhibition at 10 µM
[2] = biological target: Sodium-dependent dopamine transporter (Homo sapiens, UniProt Q01959); test: DRUGMATRIX: Dopamine Transporter radioligand binding (ligand: [125I] RTI-55); format: cell membranes, CHO-K1, Membrane; conditions: cho-k1; Not Active = under 50% inhibition at 10 µM
Chain of Sodium-dependent dopamine transporter (Q01959 whole entry): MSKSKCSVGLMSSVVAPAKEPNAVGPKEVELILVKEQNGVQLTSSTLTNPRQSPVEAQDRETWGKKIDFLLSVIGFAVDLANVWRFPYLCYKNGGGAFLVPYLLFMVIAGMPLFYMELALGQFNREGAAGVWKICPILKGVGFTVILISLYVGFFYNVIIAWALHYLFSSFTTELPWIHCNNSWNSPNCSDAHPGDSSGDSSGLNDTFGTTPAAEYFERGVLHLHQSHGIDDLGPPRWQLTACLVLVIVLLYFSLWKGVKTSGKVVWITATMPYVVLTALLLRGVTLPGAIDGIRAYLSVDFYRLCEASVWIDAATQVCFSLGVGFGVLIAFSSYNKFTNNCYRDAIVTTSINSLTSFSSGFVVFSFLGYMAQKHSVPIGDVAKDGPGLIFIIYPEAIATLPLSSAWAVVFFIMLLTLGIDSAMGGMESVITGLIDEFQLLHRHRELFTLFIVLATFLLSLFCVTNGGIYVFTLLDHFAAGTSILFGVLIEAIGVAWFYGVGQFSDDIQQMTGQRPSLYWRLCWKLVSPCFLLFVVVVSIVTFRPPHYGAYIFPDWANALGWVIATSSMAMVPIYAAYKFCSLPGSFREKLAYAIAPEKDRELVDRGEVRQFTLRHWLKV

[3] = DRUGMATRIX: Purinergic P2X radioligand binding (ligand: [3H] alpha, beta-Methylene-ATP); format: cell membranes, Oryctolagus cuniculus, New Zealand albino, Urinary bladder, Membrane; conditions: Not Active = under 50% inhibition at 10 µM
Glucocorticoid receptor = biological target: T1, Glucocorticoid receptor (Homo sapiens, UniProt P04150); conditions: hela s3; note: in other assays of this panel Not Active means under 50% inhibition at 10 µM
T1 sequence (P04150 whole entry): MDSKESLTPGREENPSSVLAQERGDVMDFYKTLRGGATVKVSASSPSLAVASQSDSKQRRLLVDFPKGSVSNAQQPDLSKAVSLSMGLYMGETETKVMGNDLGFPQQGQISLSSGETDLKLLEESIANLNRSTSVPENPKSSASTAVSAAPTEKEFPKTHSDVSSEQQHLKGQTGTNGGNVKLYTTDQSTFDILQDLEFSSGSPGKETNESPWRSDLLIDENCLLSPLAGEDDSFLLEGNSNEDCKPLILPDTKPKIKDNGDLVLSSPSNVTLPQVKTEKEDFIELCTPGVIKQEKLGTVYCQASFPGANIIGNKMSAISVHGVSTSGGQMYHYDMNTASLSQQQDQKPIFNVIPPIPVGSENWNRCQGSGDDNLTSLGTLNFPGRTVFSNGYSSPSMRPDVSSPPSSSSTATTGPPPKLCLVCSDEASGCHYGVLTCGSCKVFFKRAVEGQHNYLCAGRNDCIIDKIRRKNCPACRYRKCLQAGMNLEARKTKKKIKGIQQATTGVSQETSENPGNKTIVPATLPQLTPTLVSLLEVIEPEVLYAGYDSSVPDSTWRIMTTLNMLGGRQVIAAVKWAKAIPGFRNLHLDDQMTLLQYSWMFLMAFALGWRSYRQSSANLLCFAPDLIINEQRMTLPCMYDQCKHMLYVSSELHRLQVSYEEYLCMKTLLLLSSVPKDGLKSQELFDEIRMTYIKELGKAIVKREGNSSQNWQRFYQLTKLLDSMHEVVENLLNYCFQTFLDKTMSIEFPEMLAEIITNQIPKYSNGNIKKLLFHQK

Carbonic anhydrase 2 = Carbonic anhydrase 2 (Homo sapiens, UniProt P00918); test: DRUGMATRIX: Carbonic Anhydrase II enzyme inhibition (substrate: 4-Nitrophenyl acetate (4-NPA)); format: tissue-based, Erythrocyte; conditions: Not Active = under 50% inhibition at 10 µM
[4] = biological target: 5-hydroxytryptamine receptor 6 (Homo sapiens, UniProt P50406); format: cell membranes, HeLa, Membrane; conditions: hela; note: in other assays of this panel Not Active means under 50% inhibition at 10 µM
Chain of 5-hydroxytryptamine receptor 6 (P50406 whole entry): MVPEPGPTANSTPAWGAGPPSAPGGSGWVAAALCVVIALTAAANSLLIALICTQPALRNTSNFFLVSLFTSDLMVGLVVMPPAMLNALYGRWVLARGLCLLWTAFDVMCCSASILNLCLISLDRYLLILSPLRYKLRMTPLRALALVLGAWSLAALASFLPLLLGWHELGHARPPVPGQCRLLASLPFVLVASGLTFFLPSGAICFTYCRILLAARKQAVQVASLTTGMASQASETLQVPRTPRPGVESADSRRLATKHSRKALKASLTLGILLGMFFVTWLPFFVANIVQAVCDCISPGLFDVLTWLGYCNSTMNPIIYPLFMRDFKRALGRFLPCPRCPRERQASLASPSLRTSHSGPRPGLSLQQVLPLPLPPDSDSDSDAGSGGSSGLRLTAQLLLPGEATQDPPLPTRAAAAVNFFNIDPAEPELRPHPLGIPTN

Cannabinoid receptor 1 = Cannabinoid receptor 1 (Homo sapiens, UniProt P21554); format: cell membranes, Membrane; conditions: chem-1; note: in other assays of this panel Not Active means under 50% inhibition at 10 µM
Chain of Cannabinoid receptor 1 (P21554 whole entry): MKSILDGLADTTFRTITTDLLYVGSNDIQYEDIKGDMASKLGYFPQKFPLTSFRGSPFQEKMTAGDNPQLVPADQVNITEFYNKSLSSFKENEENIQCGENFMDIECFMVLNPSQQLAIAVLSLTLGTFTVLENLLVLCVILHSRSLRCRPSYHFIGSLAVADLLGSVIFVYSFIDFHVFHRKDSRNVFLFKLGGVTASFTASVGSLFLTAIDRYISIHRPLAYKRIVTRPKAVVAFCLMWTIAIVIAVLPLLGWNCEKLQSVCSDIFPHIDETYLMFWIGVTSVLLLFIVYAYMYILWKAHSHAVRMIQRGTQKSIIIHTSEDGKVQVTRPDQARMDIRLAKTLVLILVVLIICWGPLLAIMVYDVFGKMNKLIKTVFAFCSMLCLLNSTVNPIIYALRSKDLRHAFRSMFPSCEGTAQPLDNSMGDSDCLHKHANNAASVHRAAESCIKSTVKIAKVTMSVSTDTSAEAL

[5] = biological target: Epidermal growth factor receptor (Homo sapiens, UniProt P00533); test: DRUGMATRIX: Protein Tyrosine Kinase, EGF Receptor enzyme inhibition (substrate: Poly(Glu:Tyr)); format: cell-based, Insect cells; conditions: insect cells; Not Active = under 50% inhibition at 10 µM
Chain of Epidermal growth factor receptor (P00533 whole entry): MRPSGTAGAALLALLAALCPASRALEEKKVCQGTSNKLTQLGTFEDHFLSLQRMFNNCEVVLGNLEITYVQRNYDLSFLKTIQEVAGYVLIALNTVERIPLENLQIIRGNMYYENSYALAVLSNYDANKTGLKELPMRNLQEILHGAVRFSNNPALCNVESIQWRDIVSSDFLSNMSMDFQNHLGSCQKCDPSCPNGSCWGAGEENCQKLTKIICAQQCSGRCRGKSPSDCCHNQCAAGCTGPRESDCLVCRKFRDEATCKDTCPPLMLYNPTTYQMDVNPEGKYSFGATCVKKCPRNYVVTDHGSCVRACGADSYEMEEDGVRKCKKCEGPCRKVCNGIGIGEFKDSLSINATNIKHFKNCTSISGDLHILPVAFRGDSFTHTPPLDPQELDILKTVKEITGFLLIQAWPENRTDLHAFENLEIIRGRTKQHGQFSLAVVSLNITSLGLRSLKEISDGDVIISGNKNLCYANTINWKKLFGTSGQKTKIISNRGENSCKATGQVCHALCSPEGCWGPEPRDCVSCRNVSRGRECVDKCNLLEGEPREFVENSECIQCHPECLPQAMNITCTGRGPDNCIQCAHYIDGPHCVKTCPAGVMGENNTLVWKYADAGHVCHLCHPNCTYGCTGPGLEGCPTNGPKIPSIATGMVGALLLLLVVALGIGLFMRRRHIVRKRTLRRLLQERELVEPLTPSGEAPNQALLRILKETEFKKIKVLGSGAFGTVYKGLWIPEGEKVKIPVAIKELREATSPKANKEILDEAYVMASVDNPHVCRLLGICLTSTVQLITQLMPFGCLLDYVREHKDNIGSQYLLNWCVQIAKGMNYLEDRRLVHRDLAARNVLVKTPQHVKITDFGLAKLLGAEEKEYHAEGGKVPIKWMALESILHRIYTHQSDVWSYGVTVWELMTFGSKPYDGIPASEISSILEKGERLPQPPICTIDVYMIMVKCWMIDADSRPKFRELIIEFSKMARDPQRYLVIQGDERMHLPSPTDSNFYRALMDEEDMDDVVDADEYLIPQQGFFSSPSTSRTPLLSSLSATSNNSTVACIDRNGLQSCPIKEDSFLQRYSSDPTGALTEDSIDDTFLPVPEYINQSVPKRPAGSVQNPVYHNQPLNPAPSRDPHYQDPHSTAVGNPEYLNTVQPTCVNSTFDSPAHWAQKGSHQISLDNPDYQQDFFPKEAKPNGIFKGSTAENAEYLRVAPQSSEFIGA

Adenosine receptor A1 = biological target: T2, Adenosine receptor A1 (Homo sapiens, UniProt P30542); format: cell membranes, CHO, Membrane; conditions: cho
T2 sequence (P30542 whole entry): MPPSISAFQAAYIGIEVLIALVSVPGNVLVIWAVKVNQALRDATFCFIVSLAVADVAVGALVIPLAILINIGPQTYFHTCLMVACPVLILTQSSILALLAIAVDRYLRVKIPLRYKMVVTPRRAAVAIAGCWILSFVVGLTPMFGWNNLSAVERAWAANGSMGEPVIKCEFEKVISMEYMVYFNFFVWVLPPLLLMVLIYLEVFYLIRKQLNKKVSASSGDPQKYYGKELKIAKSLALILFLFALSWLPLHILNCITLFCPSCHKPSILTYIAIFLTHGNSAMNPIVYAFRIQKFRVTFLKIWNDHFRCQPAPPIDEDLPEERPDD

Substance-P receptor = Substance-P receptor (Homo sapiens, UniProt P25103); format: cell membranes, CHO, Membrane; conditions: cho; note: in other assays of this panel Not Active means under 50% inhibition at 10 µM
Chain of Substance-P receptor (P25103 whole entry): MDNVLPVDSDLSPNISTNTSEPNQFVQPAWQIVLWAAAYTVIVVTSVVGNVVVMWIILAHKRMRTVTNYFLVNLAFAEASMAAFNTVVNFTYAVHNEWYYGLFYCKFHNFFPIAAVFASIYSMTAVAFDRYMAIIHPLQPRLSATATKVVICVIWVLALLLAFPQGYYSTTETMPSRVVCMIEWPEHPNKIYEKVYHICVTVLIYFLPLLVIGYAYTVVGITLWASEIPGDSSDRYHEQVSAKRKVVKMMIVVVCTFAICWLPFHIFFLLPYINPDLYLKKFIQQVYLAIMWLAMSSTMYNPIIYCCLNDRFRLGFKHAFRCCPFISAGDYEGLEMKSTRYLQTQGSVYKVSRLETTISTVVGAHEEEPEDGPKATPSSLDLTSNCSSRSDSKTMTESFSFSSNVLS

[6] = biological target: T3, Alpha-2A adrenergic receptor (Homo sapiens, UniProt P08913); format: cell membranes, Sf9, Membrane; conditions: sf9; note: in other assays of this panel Not Active means under 50% inhibition at 10 µM
T3 sequence (P08913 whole entry): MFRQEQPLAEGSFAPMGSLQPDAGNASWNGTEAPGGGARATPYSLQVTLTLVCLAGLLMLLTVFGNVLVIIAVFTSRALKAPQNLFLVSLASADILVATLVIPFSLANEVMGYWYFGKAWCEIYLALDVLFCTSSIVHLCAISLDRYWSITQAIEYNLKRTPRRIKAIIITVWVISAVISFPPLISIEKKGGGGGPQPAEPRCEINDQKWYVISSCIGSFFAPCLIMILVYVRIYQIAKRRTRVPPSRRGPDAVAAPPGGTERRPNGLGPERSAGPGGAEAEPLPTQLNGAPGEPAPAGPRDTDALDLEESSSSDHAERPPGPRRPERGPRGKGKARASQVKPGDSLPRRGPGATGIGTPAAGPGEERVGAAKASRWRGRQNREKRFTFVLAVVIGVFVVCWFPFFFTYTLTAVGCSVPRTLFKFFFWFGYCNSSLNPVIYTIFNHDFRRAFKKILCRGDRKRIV

[7] = DRUGMATRIX: GABAA, Chloride Channel, TBOB radioligand binding (ligand: [3H] TBOB); format: cell membranes, Rattus norvegicus, Wistar, Cerebral cortex, Membrane; conditions: Not Active = under 50% inhibition at 10 µM
[8] = DRUGMATRIX: Sigma2 radioligand binding (ligand: [3H] Ifenprodil); format: cell membranes, Rattus norvegicus, Wistar, Brain, Membrane; conditions: Not Active = under 50% inhibition at 10 µM
Cathepsin G = biological target: T4, Cathepsin G (Homo sapiens, UniProt P08311); format: tissue-based; conditions: neutrophil
T4 sequence (P08311 whole entry): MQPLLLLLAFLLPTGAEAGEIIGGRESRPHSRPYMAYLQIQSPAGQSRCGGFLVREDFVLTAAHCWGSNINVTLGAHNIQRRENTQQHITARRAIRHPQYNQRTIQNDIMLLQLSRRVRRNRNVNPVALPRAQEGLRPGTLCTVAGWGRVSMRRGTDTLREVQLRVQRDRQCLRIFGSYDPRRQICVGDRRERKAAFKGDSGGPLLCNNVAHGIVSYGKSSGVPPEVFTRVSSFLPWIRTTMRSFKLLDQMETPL

[9] = DRUGMATRIX: Imidazoline I2, Central radioligand binding (ligand: [3H] Idazoxan); format: cell membranes, Rattus norvegicus, Wistar, Cerebral cortex, Membrane; conditions: Not Active = under 50% inhibition at 10 µM

Chain of C-C chemokine receptor type 5 (P51681 whole entry): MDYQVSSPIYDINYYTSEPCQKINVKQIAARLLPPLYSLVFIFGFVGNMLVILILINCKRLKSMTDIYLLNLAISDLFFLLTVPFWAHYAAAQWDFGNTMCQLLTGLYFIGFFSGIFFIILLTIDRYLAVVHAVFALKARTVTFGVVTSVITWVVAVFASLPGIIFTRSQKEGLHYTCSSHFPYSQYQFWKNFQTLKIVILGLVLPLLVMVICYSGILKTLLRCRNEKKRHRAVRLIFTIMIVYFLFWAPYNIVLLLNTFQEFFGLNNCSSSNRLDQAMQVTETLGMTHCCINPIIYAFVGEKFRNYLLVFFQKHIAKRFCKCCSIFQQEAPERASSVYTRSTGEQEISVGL

Row | Compound | IC50 [1] | IC50 [2] | IC50 [3] | Ki [3] | IC50 (Glucocorticoid receptor) | IC50 (Carbonic anhydrase 2; erythrocyte) | IC50 [4] | IC50 (Cannabinoid receptor 1) | IC50 [5] | IC50 (Adenosine receptor A1) | IC50 (Substance-P receptor) | IC50 [6] | IC50 [7] | Ki [7] | IC50 [8] | Ki [8] | IC50 (Cathepsin G) | IC50 [9] | Ki [9] | also measured
1 | Cn1cnc([N+](=O)[O-])c1Sc1ncnc2nc[nH]c12 [AZATHIOPRINE] | Not Active | Not Active | Not Active | Not Active | Not Active | Not Active | Not Active | Not Active | Not Active | Not Active | Not Active | Not Active | Not Active | Not Active | Not Active | Not Active | Not Active | Not Active | Not Active | 
2 | CC1(C)S[C@@H]2[C@H](NC(=O)[C@H](NC(=O)N3CCNC3=O)c3ccccc3)C(=O)N2[C@H]1C(=O)O [AZLOCILLIN] | Not Active | Not Active | Not Active | Not Active | Not Active | Not Active | Not Active | Not Active | Not Active | Not Active | Not Active | Not Active | Not Active | Not Active | Not Active | Not Active | Not Active | Not Active | Not Active | 
3 | CCOC(=O)c1ccc(N)cc1 [BENZOCAINE] | Not Active | Not Active | Not Active | Not Active | Not Active | Not Active | Not Active | Not Active | Not Active | Not Active | Not Active | Not Active | Not Active | Not Active | Not Active | Not Active | Not Active | Not Active | Not Active | 
4 | OCc1ccccc1 [BENZYL ALCOHOL] | Not Active | Not Active | Not Active | Not Active | Not Active | Not Active | Not Active | Not Active |  | Not Active | Not Active | Not Active | Not Active | Not Active | Not Active | Not Active | Not Active | Not Active | Not Active | Ki [5]: Not Active
5 | CC(C)(Oc1ccc(CCNC(=O)c2ccc(Cl)cc2)cc1)C(=O)O [BEZAFIBRATE] | Not Active | Not Active | Not Active | Not Active | Not Active | Not Active | Not Active | Not Active | Not Active | Not Active | Not Active | Not Active | Not Active | Not Active | Not Active | Not Active | Not Active | Not Active | Not Active | 
6 | CCCC[C@@H](CC)COC(=O)c1ccccc1C(=O)OC[C@@H](CC)CCCC [BIS(2-ETHYLHEXYL)PHTHALATE] | Not Active | Not Active | Not Active | Not Active | Not Active |  | Not Active | Not Active | Not Active | Not Active | Not Active | Not Active | Not Active | Not Active | Not Active | Not Active | Not Active | Not Active | Not Active | IC50 (Carbonic anhydrase 2; read-out: IC50): 66.9 µM
7 | Brc1ccccc1 [BROMOBENZENE] | Not Active | Not Active | Not Active | Not Active | Not Active | Not Active | Not Active | Not Active | Not Active | Not Active | Not Active | Not Active | Not Active | Not Active | Not Active | Not Active | Not Active | Not Active | Not Active | 
8 | CCCCOC(=O)c1ccc(N)cc1 [BUTAMBEN] | Not Active | Not Active | Not Active | Not Active | Not Active | Not Active | Not Active | Not Active | Not Active | Not Active | Not Active | Not Active | Not Active | Not Active | Not Active | Not Active | Not Active | Not Active | Not Active | 
